Reference: patent US20240043435A1, “TYK-2 INHIBITOR” (BEIGENE, LTD., priority 2020, published 2024)

target: T1, TYK2-JH2 (aa 575-869, in-house) protein (Homo sapiens, UniProt P29597); test: TYK2-JH2 biochemical assay (HTRF probe displacement); assay type: binding; conditions: Biochemical assay; read-out: TYK2-JH2 IC50
T1 construct: TYK2-JH2 (aa 575-869, in-house) protein; made in house
Procedure: Assay A: TYK2-JH2 Biochemical Assay
Compounds disclosed herein were tested for blocking of TYK2-JH2 (aa 575-869, in-house) protein with its probe in an assay based on Homogeneous Time Resolved Fluorescence. Compound dilution is done according to the following protocol: (1) Prepare 500× compounds solution in DMSO from 500 uM by 5-fold dilution, total 10 doses were included; (2) Prepare 10× compounds solution in an assay buffer containing 20 mM HEPES, pH 7.5, 10 mM MgCl2, 0.005% BSA, 2 mM DTT, 0.015% Brij-35 by transferring 1 μl serial 500× stock solution into 49 μl assay buffer. […] of 0.2 nM recombinant TYK2-JH2 protein was pre-incubated with 1 μl of 10× serial dilution of compounds at room temperature for 0.5 hour. […] The HTRF signals (ex337 nm, em620 nm/665 nm) were read on BMG PHERAstar FS instrument. The inhibition percentage of TYK2 interaction with its probe in presence of increasing concentrations of compounds was calculated based on the ratio of fluorescence at 615 nm to that at 665 nm. The IC50 for each compound was derived from fitting the data to the four-parameter logistic equation by Dotmatics.

T1 sequence (P29597 575-869): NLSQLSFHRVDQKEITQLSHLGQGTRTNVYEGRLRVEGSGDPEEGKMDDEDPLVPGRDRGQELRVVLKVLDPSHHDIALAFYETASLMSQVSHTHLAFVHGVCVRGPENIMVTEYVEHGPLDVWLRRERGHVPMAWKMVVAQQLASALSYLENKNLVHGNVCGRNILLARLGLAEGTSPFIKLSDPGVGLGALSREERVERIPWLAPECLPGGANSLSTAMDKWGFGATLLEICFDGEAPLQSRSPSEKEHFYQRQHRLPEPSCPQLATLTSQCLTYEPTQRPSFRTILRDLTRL

Row | IC50 | Compound
1 | 5.8 nM | CC(=O)Nc1cc(Nc2cccc(S(C)(=O)=O)n2)c(-c2cccnc2)cn1 [Example B2, N-(4-((6-(methylsulfonyl)pyridin-2-yl)amino)-[3,3′-bipyridin]-6-yl)acetamide]
2 | 0.53 nM | CC(=O)Nc1cc(Nc2cccc(S(C)(=O)=O)c2)c(-c2cc(C(C)(C)O)ccn2)cn1 [Example B9, N-(4-(2-hydroxypropan-2-yl)-4′-((3-(methylsulfonyl)phenyl)amino)-[2,3′-bipyridin]-6′-yl)acetamide]
3 | 0.045 nM | CC(=O)Nc1cc(Nc2cc(C)cc(S(C)(=O)=O)n2)c(-c2cc(C(C)(C)O)ccn2)cn1 [Example B10, N-(4-(2-hydroxypropan-2-yl)-4′-((4-methyl-6-(methylsulfonyl)pyridin-2-yl)amino)-[2,3′-bipyridin]-6′-yl)acetamide]
4 | 0.019 nM | CC(=O)Nc1cc(Nc2cccc(S(C)(=O)=O)c2)c(-c2ccc(N3CCOCC3)cn2)cn1 [Example B11, N-(4′-((3-(methylsulfonyl)phenyl)amino)-5-morpholino-[2,3′-bipyridin]-6′-yl)acetamide]
5 | 0.068 nM | CC(=O)Nc1cc(Nc2cc(C)cc(S(C)(=O)=O)c2)c(-c2ccc(C(F)(F)F)cn2)cn1 [Example F3, N-(4′-((3-methyl-5-(methylsulfonyl)phenyl)amino)-5-(trifluoromethyl)-[2,3′-bipyridin]-6′-yl)acetamide]
6 | 0.324 nM | CC(=O)Nc1cc(Nc2cc(C#N)cc(S(C)(=O)=O)c2)c(-c2ccc(C(F)(F)F)cn2)cn1 [Example F4, N-(4′-((3-cyano-5-(methylsulfonyl)phenyl)amino)-5-(trifluoromethyl)-[2,3′-bipyridin]-6′-yl)acetamide]
7 | 0.532 nM | CC(=O)Nc1cc(Nc2cc(OCC3CC3)cc(S(C)(=O)=O)c2)c(-c2ccc(C(F)(F)F)cn2)cn1 [Example F6, N-(4′-((3-(cyclopropylmethoxy)-5-(methylsulfonyl)phenyl)amino)-5-(trifluoromethyl)-[2,3′-bipyridin]-6′-yl)acetamide]
8 | 0.085 nM | CC(=O)Nc1cc(Nc2cc(OCCO)cc(S(C)(=O)=O)c2)c(-c2ccc(C(F)(F)F)cn2)cn1 [Example F7, N-(4′-((3-(2-hydroxyethoxy)-5-(methylsulfonyl)phenyl)amino)-5-(trifluoromethyl)-[2,3′-bipyridin]-6′-yl)acetamide]
9 | 0.087 nM | COCCOc1cc(Nc2cc(NC(C)=O)ncc2-c2ccc(C(F)(F)F)cn2)cc(S(C)(=O)=O)c1 [Example F8, N-(4′-((3-(2-methoxyethoxy)-5-(methylsulfonyl)phenyl)amino)-5-(trifluoromethyl)-[2,3′-bipyridin]-6′-yl)acetamide]
10 | 0.04 nM | CCOc1cc(Nc2cc(NC(C)=O)ncc2-c2ccc(C(F)(F)F)cn2)nc(S(C)(=O)=O)c1 [Example F10, N-(4′-((4-ethoxy-6-(methylsulfonyl)pyridin-2-yl)amino)-5-(trifluoromethyl)-[2,3′-bipyridin]-6′-yl)acetamide]
11 | 0.21 nM | CC(=O)Nc1cc(Nc2cc(C(F)(F)F)cc(S(C)(=O)=O)c2)c(-c2ccc(F)cn2)cn1 [Example F13, N-(5-fluoro-4′-((3-(methylsulfonyl)-5-(trifluoromethyl)phenyl)amino)-[2,3′-bipyridin]-6′-yl)acetamide]
12 | 0.13 nM | CC(=O)Nc1cc(Nc2cc(OC(C)C)cc(S(C)(=O)=O)c2)c(-c2ccc(F)cn2)cn1 [Example F14, N-(5-fluoro-4′-((3-isopropoxy-5-(methylsulfonyl)phenyl)amino)-[2,3′-bipyridin]-6′-yl)acetamide]
13 | 0.027 nM | COCCOc1cc(Nc2cc(NC(C)=O)ncc2-c2ccc(F)cn2)nc(S(C)(=O)=O)c1 [Example F16, N-(5-fluoro-4′-((4-(2-methoxyethoxy)-6-(methylsulfonyl)pyridin-2-yl)amino)-[2,3′-bipyridin]-6′-yl)acetamide]
14 | 0.052 nM | CC(=O)Nc1cc(Nc2cc(OC(C)C)cc(S(C)(=O)=O)n2)c(-c2ccc(F)cn2)cn1 [Example F18, N-(5-fluoro-4′-((4-isopropoxy-6-(methylsulfonyl)pyridin-2-yl)amino)-[2,3′-bipyridin]-6′-yl)acetamide]
15 | 0.047 nM | COc1cc(Nc2cc(NC(C)=O)ncc2-c2ccc(C(C)(C)O)cn2)cc(S(C)(=O)=O)c1 [Example H4, N-(5-(2-hydroxypropan-2-yl)-4′-((3-methoxy-5-(methylsulfonyl)phenyl)amino)-[2,3′-bipyridin]-6′-yl)acetamide]
16 | 0.12 nM | CC(=O)Nc1cc(Nc2cc(C(F)(F)F)cc(S(C)(=O)=O)c2)c(-c2ccn(C)n2)cn1 [Example J33, N-(5-(1-methyl-1H-pyrazol-3-yl)-4-((3-(methylsulfonyl)-5-(trifluoromethyl)phenyl)amino)pyridin-2-yl)acetamide]
17 | 0.13 nM | CC(=O)Nc1cc(Nc2nc(S(C)(=O)=O)ccc2OC(C)C)c(-c2ccn(C)n2)cn1 [Example J49, N-(4-((3-isopropoxy-6-(methylsulfonyl)pyridin-2-yl)amino)-5-(1-methyl-1H-pyrazol-3-yl)pyridin-2-yl)acetamide]
18 | 0.099 nM | CCn1ccc(-c2cnc(NC(C)=O)cc2Nc2cc(C#N)cc(S(C)(=O)=O)c2)n1 [Example M10, N-(4-((3-cyano-5-(methylsulfonyl)phenyl)amino)-5-(1-ethyl-1H-pyrazol-3-yl)pyridin-2-yl)acetamide]
19 | 0.11 nM | CCn1ccc(-c2cnc(NC(C)=O)cc2Nc2cc(C(F)(F)F)cc(S(C)(=O)=O)c2)n1 [Example M13, N-(5-(1-ethyl-1H-pyrazol-3-yl)-4-((3-(methylsulfonyl)-5-(trifluoromethyl)phenyl)amino)pyridin-2-yl)acetamide]
20 | 0.048 nM | CCn1ccc(-c2cnc(NC(C)=O)cc2Nc2cc(OCC3CC3)cc(S(C)(=O)=O)c2)n1 [Example M16, N-(4-((3-(cyclopropylmethoxy)-5-(methylsulfonyl)phenyl)amino)-5-(1-ethyl-1H-pyrazol-3-yl)pyridin-2-yl)acetamide]
21 | 0.074 nM | CC(=O)Nc1cc(Nc2cc(C(F)(F)F)cc(S(C)(=O)=O)c2)c(-c2ccn([C@@H]3CCOC3)n2)cn1 [Example M32, (R)-N-(4-((3-(methylsulfonyl)-5-(trifluoromethyl)phenyl)amino)-5-(1-(tetrahydrofuran-3-yl)-1H-pyrazol-3-yl)pyridin-2-yl)acetamide]
22 | 0.065 nM | CC(=O)Nc1cc(Nc2cc(OC(C)C)cc(S(C)(=O)=O)n2)c(-c2ccc3nccn3n2)cn1 [Example Q5, N-(5-(imidazo[1,2-b]pyridazin-6-yl)-4-((4-isopropoxy-6-(methylsulfonyl)pyridin-2-yl)amino)pyridin-2-yl)acetamide]
23 | 0.033 nM | CC(=O)Nc1cc(Nc2cc(OCC3COCCO3)cc(S(C)(=O)=O)n2)c(-c2ccc3c(n2)OC(C)(C)CO3)cn1 (centres unmarked) [Example Q27, N-(4-((4-((1,4-dioxan-2-yl)methoxy)-6-(methylsulfonyl)pyridin-2-yl)amino)-5-(3,3-dimethyl-2,3-dihydro-[1,4]dioxino[2,3-b]pyridin-6-yl)pyridin-2-yl)acetamide]
24 | 0.037 nM | CC(=O)Nc1cc(Nc2cc(C(C)(C)O)cc(S(C)(=O)=O)n2)c(-c2ccc3c(n2)OC(C)(C)CO3)cn1 [Example Q29, N-(5-(3,3-dimethyl-2,3-dihydro-[1,4]dioxino[2,3-b]yridine-6-yl)-4-((4-(2-hydroxypropan-2-yl)-6-(methylsulfonyl)pyridine-2-yl)amino)pyridine-2-yl)acetamide]
25 | 0.065 nM | CC(=O)Nc1cc(Nc2cc(C)c(F)c(S(C)(=O)=O)n2)c(-c2ccc3c(n2)OC(C)(C)CO3)cn1 [Example Q30, N-(5-(3,3-dimethyl-2,3-dihydro-[1,4]dioxino[2,3-b]pyridine-6-yl)-4-((5-fluoro-4-methyl-6-(methylsulfonyl)pyridine-2-yl)amino)pyridine-2-yl)acetamide]
26 | 0.019 nM | CC(=O)Nc1cc(Nc2cc(N3CCC(C)(O)CC3)cc(S(C)(=O)=O)n2)c(-c2ccc3c(n2)OCC(C)(C)O3)cn1 [Example Q55, N-(5-(2,2-dimethyl-2,3-dihydro-[1,4]dioxino[2,3-b]pyridin-6-yl)-4-((4-(4-hydroxy-4-methylpiperidin-1-yl)-6-(methylsulfonyl)pyridin-2-yl)amino)pyridin-2-yl)acetamide]
27 | 0.031 nM | CC(=O)Nc1cc(Nc2cc(N3CC(C)(O)C3)cc(S(C)(=O)=O)n2)c(-c2ccc3c(n2)OCC(C)(C)O3)cn1 [Example Q56, N-(5-(2,2-dimethyl-2,3-dihydro-[1,4]dioxino[2,3-b]pyridin-6-yl)-4-((4-(3-hydroxy-3-methylazetidin-1-yl)-6-(methylsulfonyl)pyridin-2-yl)amino)pyrid-in-2-yl)acetamide]

Row | Compound | IC50
28 | CC(=O)Nc1cc(Nc2cc(O[C@H]3C[C@H](O)C3)cc(S(C)(=O)=O)c2)c(-c2ccc(C(F)(F)F)cn2)cn1 [Example F5, N-(4′-((3-((trans)-3-hydroxycyclobutoxy)-5-(methylsulfonyl)phenyl)amino)-5-(trifluoromethyl)-[2,3′-bipyridin]-6′-yl)acetamide] | 0.061 nM
29 | CC(=O)Nc1cc(Nc2cc(O[C@H]3C[C@H](O)C3)cc(S(C)(=O)=O)c2)c(-c2ccc(F)cn2)cn1 [Example F15, N-(5-fluoro-4′-((3-((trans)-3-hydroxycyclobutoxy)-5-(methylsulfonyl)phenyl)amino)-[2,3′-bipyridin]-6′-yl)acetamide] | 0.073 nM
